{"source": "patent US20210113602A1", "about": "“USE OF 6-THIO-2'-DEOXYGUANOSINE (6-THIO-dG) TO TREAT MELANOMA” (The Board of Regents of the University of Texas System, priority 2018, published 2021)", "assay_type_in_all_cases": "cell-based, human", "key": {"[1]": {"test_system": "KRAS mutant HCT116 cells", "assay": "Cell death, Annexin V/PI", "conditions": "1 μM 6-thio-dG, 5 μM Gam"}, "[2]": {"test_system": "NRAS mutant SKNAS cells", "assay": "Cell death, Annexin V/PI", "conditions": "single agents or combination; 1 μM 6-thio-dG, 5 μM Gam"}, "[3]": {"test_system": "NRAS mutant melanoma cells", "assay": "Telomere length, Southern blotting of TRF", "conditions": "1 μM for 14 days", "procedure": "FIGS. 2a-h. […] (FIGS. 2a-c) NRASmut melanoma cells (FIG. 2a), BRAF-V600E/NRAS mutant cells derived from melanoma patients resistant to BRAF/MEK inhibitors (FIG. 2b), or non-transformed melanocytes and fibroblasts (FIG. 2c) were treated with 6-thio-dG for 7 days. Cell viability was measured by Alamar Blue assay and calculated relative to DMSO-treated cells. (FIG. 2d) NRASmut melanoma cells and non-transformed human fibroblasts were treated with 1 or 5 μM 6-thio-dG for 7 or 14 days. Cell death was assessed by PSVUe staining. Percent of apoptotic cells is shown. (FIG. 2e) Cells were treated with DMSO or 1 μM 6-thio-dG for 14 days and telomere length was assessed by Southern blotting of TRF. Mean TRF length expressed as kilobase pairs is indicated at the bottom. (FIGS. 2f-g) Cells were treated with 1 μM 6-thio-dG for 7 days. (FIG. 2f) ROS production was measured by H2DCFDA fluorescence and normalized to MSO treated cells. (FIG. 2g) DNA damage was assessed by γH2AX staining. Data represent average from three independent experiments±SEM. *p<0.05; **p<0.01; ***p<0.005 in unpaired Student's t-test. […] Tumor volume was measured and average tumor volume (n=4)±SEM was plotted vs. time.\nTelomere length assay. […] The images were analyzed with Phosphorimager, visualized by Typhoon 9410 Imager (GE Healthcare), and processed with ImageQuant 5.2 software (Molecular Dynamics)."}, "[4]": {"test_system": "NRAS mutant melanoma cells", "assay": "Relative cell number, Crystal Violet assay", "conditions": "6, 12 or 18 days; relative to DMSO", "procedure": "Supplementary FIGS. 8a-d. NRAS mutant melanoma cells are sensitive to the telomere uncapping agent 6-thio-dG. NRAS^mut melanoma cells were treated with 6-thio-dG for 6, 12 or 18 days. (Supplementary FIG. 8a) Relative cell number was assessed by […] Violet assay and calculated relative to DMSO-treated cells. Data represent average of three independent experiments +/-SD. (Supplementary FIG. 8b) Representative pictures of cells treated with 6-thio-dG for the indicated days and stained with Crystal Violet. (Supplementary FIG. 8c) NRAS^mut cells were treated with 6-thio-dG for 7 days and telomere-induced foci (TIF) were determined by indirect immunofluorescence combined with fluorescence in situ hybridization (FISH). Cells were considered TIF-positive when for or more co-localizing foci of telomeres and γ-H2AX were found. (Supplementary FIG. 8d) Quantification of TIF assay. Cells were scored as TIF-positive when four or more γ-H2AX foci (green) were co-localizing with telomere foci (red). Data represent average of […]. P values were calculated by unpaired Student's t-test."}}}
{"smiles": "Nc1nc2c(ncn2[C@H]2C[C@H](O)[C@@H](CO)O2)c(=S)[nH]1", "note": "[6-thio-dG, 6-thio-2′-deoxy-guanosine]", "values": [{"measurement": "cell death", "setting": "[1]", "result": "did not induce substantial death"}, {"measurement": "cell death", "setting": "[2]", "result": "triggered significant death"}, {"measurement": "telomere length (mean TRF)", "setting": "[3]", "result": "without evidence for significant telomere shortening"}, {"measurement": "relative cell number (sensitivity)", "setting": "[4]", "result": "sensitive"}]}
